Measurements reported in publication PMC9775310, “Anticancer, Antimicrobial, and Antioxidant Activities of Organodiselenide-Tethered Methyl Anthranilates” (Biomolecules, 2022).
Like-named read-outs stand apart in the source and are kept apart here.

What was measured:
HepG2 cells = assay: MTT assay, antiproliferative activity, HepG2 liver carcinoma cells; type: cell-based; details: Homo sapiens, read-out: HepG2 IC50
Protocol: (§1) The anticancer activity of the OSe was performed using the MTT assay against liver (HepG2) and breast (MCF-7) carcinoma cells, as well as normal WI-38 cells following the reported method. Experimental details can be found in the Supplementary Materials Section S1.
(§2) Accordingly, the anticancer properties of the OSe hybrids were assessed against two cancer cell lines, i.e., HepG2 and MCF-7 cells. Furthermore, their corresponding cytotoxicity was also estimated against the immortalized lung WI-38 fibroblasts employing the MTT assay. The Adriamycin cancer drug was used as the positive control. The concentration inhibition, 50%, needed to kill half of the cells (IC50) was estimated from (concentration-response plots) and tabulated in Table 1.
(§3) 1.1. The biological assays
(§4) 1.1.1. The anticancer activity
(§5) The breast adenocarcinoma (MCF-7), Hepatocellular carcinoma (HEPG-2), and normal fibroblast (WI-38) cells were obtained from ATCC via Holding company for biological products and vaccines (VACSERA), Cairo, Egypt. The reagents […] medium, MTT, DMSO, and fetal bovine serum was obtained from Sigma Aldrich. Dulbecco’s modified Eagle’s medium was used as the culture medium for the cells, and the cytotoxicity was evaluated using the reported MTT assay. Doxorubicin was used as the positive reference, and the IC50 values were obtained from the corresponding dose-response curve.
(§6) This colorimetric assay is based on converting the yellow tetrazolium bromide (MTT) to a purple formazan derivative by mitochondrial succinate dehydrogenase in viable cells. Cell lines were cultured in […] medium with 10% fetal bovine serum. Antibiotics added were 100 units/ml penicillin and 100µg/ml streptomycin at 37 C in a 5% Co2 incubator. The cell lines were seeded in a 96-well plate at a density of 1.0x10^4 cells/well. at 37 C for 48 h under 5% […]
Finally, dimethyl sulfoxide (DMSO) in the volume of 100 µl is added to each well to dissolve the purple formazan formed. The colorimetric assay is measured and recorded at an absorbance of 570 nm using a plate reader (EXL 800, USA). […]

Candida albicans [1] = assay: Agar well diffusion assay, C. albicans; type: cell-based; details: read-out: C. Albicans ZID
Staphylococcus aureus [2] = assay: Agar well diffusion assay, S. aureus; type: cell-based; details: ratio of inhibition zone to that of positive control
Protocol: (§7) According to the reported method, the OSe agents’ antimicrobial properties were estimated against Staphylococcus aureus (S. aureus), Escherichia coli (E. coli), and Candida albicans (C. albicans) microbial strains using the agar well diffusion assay. In addition, the MICs (in […]) were also recorded via the microdilution method following the reported procedure. Experimental details can be found in the Supplementary Materials Section S1 [16, 18].
(§8) The promising anticancer activities manifested by the OSe compounds encourage us to further evaluate their respective antimicrobial activity against a panel of gram-negative bacteria (e.g., E. coli) and the gram-positive bacteria (e.g., S. aureus) as well as a fungal strain (C. albicans) using the method of agar diffusion. The clotrimazole antifungal and the ampicillin antibacterial drugs were used as the positive controls. […]
(§9) 1.1.2. The antimicrobial activity
(§10) The antimicrobial activities of the OSe compounds were evaluated against C. albicans yeast as well as E. coli gram-negative and S. aureus gram-positive bacteria employing the agar well diffusion assay [ 4 ] .
(§11) Briefly, a concentration of 1 mM was prepared for each compound by dissolving in DMSO.
(§12) Paper discs of standard size […] were sterilized in an autoclave and soaked in 9 µL of the test compounds, and placed in the Petri dishes, which in turn contain a nutrient media (agar 9 g, peptone 5 g, and beef extract 3 g) seeded with the dedicated strain. Incubation lasted for 13 h at 36 0C. Experiments were replicated three times and the antifungal clotrimazole and antibiotic ampicillin were used as standards. The % activity index for the complex was determined and depicted in table 2. […]

WI-38 cells = assay: MTT assay, cytotoxicity against normal WI-38 fibroblasts; type: cell-based; details: Homo sapiens, WI-38, 24 h, read-out: WI38 IC50
Protocol: as §1
as §2, with “control.” for “control. The concentration inhibition, 50%, needed to kill half of the cells (IC50) was estimated from (concentration-response plots) and tabulated in Table 1.”
as §3, §4, §5, §6
(§13) Finally, dimethyl sulfoxide (DMSO) in the volume of 100 µl is added to each well to dissolve the purple formazan formed. […]

MCF-7 cells = assay: MTT assay, antiproliferative activity, MCF-7 breast carcinoma cells; type: cell-based; details: Homo sapiens, MCF7, 24 h, read-out: MCF7 IC50
Protocol: as §1
as §2, with “control.” for “control. The concentration inhibition, 50%, needed to kill half of the cells (IC50) was estimated from (concentration-response plots) and tabulated in Table 1.”
as §3, §4, §5, §6, §13

Candida albicans [3] = assay: Agar well diffusion assay, C. albicans; type: cell-based; details: ratio of inhibition zone to that of positive control
Protocol: as §7, §8, §9, §10, §11, §12

Staphylococcus aureus [4] = assay: Agar well diffusion assay, S. aureus; type: cell-based; details: read-out: S. aureus ZID
Escherichia coli [5] = assay: Agar well diffusion assay, E. coli; type: cell-based; details: read-out: E. coli ZID
Escherichia coli [6] = assay: Agar well diffusion assay, E. coli; type: cell-based; details: ratio of inhibition zone to that of positive control
Protocol: as §7, §8, §9, §10, §11, §12

[7] = DPPH radical scavenging bioassay; details: for DPPH radical scavenging activity: 200 µL, 1 mM in MeOH, DPPH 400 µL, 30 min, 517 nm
Source text: (§14) The DPPH and ABTS in vitro bioassays were used to assess the OSe antioxidant activities following the reported method. Experimental details can be found in the Supplementary Materials Section S1.
(§15) The redox modulation activities of the OSe compounds were extensively explored over the last decade owing to their chemopreventive and antioxidant potency. The latter is usually investigated by the ABTS and DPPH in vitro tests employing vitamin C as the positive control. The OSe compound’s magnitude estimated the antioxidant potential to decolorize the distinctive colors of the DPPH^. and ABTS^. radicals at 517 nm and 734 nm, respectively (Figure 2).
(§16) Figure 2 The OSe compounds redox activities assessment using the ABTS and DPPH experiments. All tests are mean ± SD. ABTS experiment: absorbance was followed at 734 nm for OSe compounds (50 µL, 1 mM in MeOH) and ABTS solution (60 µL). DPPH experiment: Absorbance was monitored after 30 min at 517 nm for OSe compounds (200 µL, 1 mM in MeOH) and DPPH (400 µL). […]
1.1.3. The antioxidant activity
1.1.3.1. The DPPH bioassay
The hydrogen atom or electron donation ability of the corresponding compounds was measured by estimating the bleaching of the purple color of a methanolic solution of DPPH [5]. This spectrophotometric assay uses stable DPPH. reagent. The sample was prepared by adding […] of the OSe compounds (1 mM in methanol) to […] DPPH in methanol. After 30 min of incubation in the dark, the absorbance was read against a blank at […]. Ascorbic acid (vitamin C) and ebselen were used as standard antioxidants (positive control). A blank sample was run without DPPH. A negative control sample was run using methanol instead of the sample. The radical scavenging activity was […]
using the following equation:
Inhibition%= (Ablank-Asample)/(Ablank)*100. […]

[8] = ABTS radical scavenging bioassay; details: dose needed to decrease the absorbance by 50%
Source text: as §14, §15, §16
1.1.3.2. The ABTS bioassay
The antioxidant activity of the investigated compounds was assessed using 2,2’-azino-bis(3-ethylbenzothiazoline-6-sulphonic acid (ABTS) method. The radical cation derived from ABTS was prepared by the reaction of 60 mM ABTS solution with 0.3 M manganese dioxide solution in 0.1M phosphate buffer, pH 7. Then, the mixture was shaken, centrifuged, filtered, and the absorbance (Acontrol) of the resulting green-blue solution (ABTS radical solution) was measured at wavelength 734 nm. Then, […] of 1 mg/ml test compound in phosphate-buffered methanol was added. The absorbance (Atest) was measured. The reduction in color intensity was expressed as % inhibition. The % inhibition for each compound is calculated from the following equation
Inhibition% = (Acontrol-Asample)/(Acontrol)*100
Ascorbic acid (vitamin C) was used as a standard antioxidant (positive control). A blank sample was run without ABTS and using MeOH/phosphate buffer (1:1) instead of the sample. A negative control sample was run with MeOH/phosphate buffer (1:1) instead of a tested compound.

| IC50 (HepG2 cells; MTT, HepG2 cells, 24 h incubation) [µM] | IC50 [8] [µM] | IC50 ([7]; dose needed to decrease the absorbance by 50%) [µM] | Structure (SMILES) | zone of inhibition at 20 µM (Candida albicans [1]) [mm] | S. aureus IA% (activity index) (Staphylococcus aureus [2]) [%] | IC50 (WI-38 cells) [µM] | IC50 (MCF-7 cells) [µM] | C. Albicans IA% (activity index) (Candida albicans [3]) [%] | zone of inhibition at 20 µM (Staphylococcus aureus [4]) [mm] | IC50 (HepG2 cells; HepG2, 24 h) [µM] | melting point [°C] | zone of inhibition at 20 µM (Escherichia coli [5]) [mm] | E. coli IA% (activity index) (Escherichia coli [6]) [%] | DPPH radical scavenging activity [7] [%] |
| --- | --- | --- | --- | --- | --- | --- | --- | --- | --- | --- | --- | --- | --- | --- |
| 4.5 ± 0.2 | – | – | COc1cccc2c1C(=O)c1c(O)c3c(c(O)c1C2=O)C[C@@](O)(C(=O)CO)C[C@@H]3O[C@H]1C[C@H](N)[C@H](O)[C@H](C)O1 [Adriamycin, reference compound] | – | – | – | – | – | – | – | – | – | – | – |
| – | – | – | COC(=O)c1cc([Se][Se]c2ccc(NC=O)c(C(=O)OC)c2)ccc1NC=O [Compound 7, dimethyl 5,5′-diselanediylbis(2-formamidobenzoate)] | 4 | 14.3 | 45.7 ± 2.7 | 79 ± 4.2 | 16.7 | 3 | 83.7 ± 4.4 | 195 to 196 | – | – | – |
| – | – | – | COC(=O)c1cc([Se][Se]c2ccc(NC(C)=O)c(C(=O)OC)c2)ccc1NC(C)=O [Compound 8, dimethyl 5,5′-diselanediylbis(2-acetamidobenzoate)] | – | – | > 100 | > 100 | – | – | > 100 | 186 to 187 | – | – | – |
| – | – | – | COC(=O)c1cc([Se][Se]c2ccc(NC(=O)CCl)c(C(=O)OC)c2)ccc1NC(=O)CCl [Compound 9, dimethyl 5,5′-diselanediylbis(2-(2-chloroacetamido) benzoate)] | – | – | > 100 | > 100 | – | – | > 100 | 150 to 152 | – | – | – |
| – | – | – | COC(=O)c1cc([Se][Se]c2ccc(NC(=O)COc3ccccc3)c(C(=O)OC)c2)ccc1NC(=O)COc1ccccc1 [Compound 10, dimethyl 5,5′-diselanediylbis(2-(2-phenoxyacetamido) benzoate)] | 5 | 38.1 | 38.2 ± 2.5 | 53.5 ± 3 | 20.8 | 8 | 81.5 ± 4.2 | 152 to 154 | 5 | 21.7 | – |
| – | – | – | COC(=O)c1cc([Se][Se]c2ccc(NC(=O)CCC(=O)O)c(C(=O)OC)c2)ccc1NC(=O)CCC(=O)O [Compound 11] | 10 | 33.3 | > 100 | 55.1 ± 3.2 | 41.7 | 7 | 43.7 ± 2.6 | 150 to 152 | 5 | 21.7 | – |
| – | – | – | COC(=O)c1cc([Se][Se]c2ccc(N3C(=O)CCC3=O)c(C(=O)OC)c2)ccc1N1C(=O)CCC1=O [Compound 12, dimethyl 5,5′-diselanediylbis(2-(2,5-dioxopyrrolidin-1-yl) benzoate] | – | – | > 100 | > 100 | – | – | > 100 | 100 | – | – | – |
| – | – | – | COC(=O)c1cc([Se][Se]c2ccc(NC(=O)/C=C\C(=O)O)c(C(=O)OC)c2)ccc1NC(=O)/C=C\C(=O)O [Compound 13, (2Z,2’Z)-4,4′-((diselanediylbis(2-(methoxycarbonyl)-4,1-phenylene))bis(azanediyl)) bis (4-oxobut-2-enoic acid)] | 5 | 19.0 | 47 ± 2.8 | 76.2 ± 4 | 20.8 | 4 | 78.5 ± 3.9 | 149.5 to 151 | – | – | – |
| – | – | – | COC(=O)c1cc([Se]Cc2ccccc2)ccc1N [Compound 15, methyl 2-amino-5-(benzylselanyl) benzoate] | 22 | 85.7 | 25.8 ± 1.8 | 12.8 ± 0.9 | 91.7 | 18 | 6.48 ± 0.4 | 78 | 17 | 73.9 | 89 |
| – | – | – | COC(=O)c1cc([Se]CC(=O)Nc2ccccc2)ccc1N [Compound 16, methyl 2-amino-5-((2-oxo-2-(phenylamino)ethyl)selanyl) benzoate] | 13 | 42.8 | 71.9 ± 4.1 | 50.8 ± 2.9 | 54.2 | 9 | 30.6 ± 2.4 | 126 to 128.5 | 6 | 26.1 | – |
| – | 28.16 ± 0.19 | 19.18 ± 0.13 | O=C1O[C@H]([C@@H](O)CO)C(O)=C1O [Vitamin C, Ascorbic acid, reference compound] | – | – | – | – | – | – | – | – | – | – | 95 |
